Reference: US8168651B2, “Protein kinase modulators” (Cylene Pharmaceuticals, Inc., priority 2008, dated 2012)
One block for each compound: values may come before it.

Legend:
[1] = molecular target: other protein kinases (each individual kinase); test: Standardized radiometric kinase assays, IC50 over 10 drug concentrations; type: biochemical; settings: estimated
[2] = molecular target: each individual kinase of the panel (Homo sapiens, UniProt P04049); test: Standardized radiometric kinase assays, percentage of activity at 0.5 μM; settings: for % Activity: c-RAF(h);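 on all read-outs here: Read-out is ³³P-labelled substrate protein phosphorylated by each kinase, captured on filters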
[3] = molecular target: each individual kinase of the panel (Homo sapiens, UniProt Q9NYY3); test: as above; settings: for % Activity: Snk(h)
[4] = molecular target: each individual kinase of the panel (Homo sapiens, UniProt P10721, V560G); test: as above; settings: for % Activity: cKit(V560G)(h)
[5] = molecular target: each individual kinase of the panel (Homo sapiens, UniProt Q13177); test: as above; settings: for % Activity: PAK2(h)
[6] = molecular target: each individual kinase of the panel (Homo sapiens, UniProt Q13976); test: as above; settings: for % Activity: PKG1α(h)
[7] = molecular target: each individual kinase of the panel (Homo sapiens, UniProt P50750); test: as above; settings: for % Activity: CDK9/cyclin T1 (h)
[8] = molecular target: each individual kinase of the panel (Homo sapiens, UniProt Q8IW41); test: as above; settings: for % Activity: PRAK(h)
[9] = molecular target: each individual kinase of the panel (Homo sapiens, UniProt Q14680); test: as above; settings: for % Activity: MELK(h)
[10] = molecular target: each individual kinase of the panel (Homo sapiens, UniProt Q86V86); test: as above; settings: for % Activity: Pim-3(h)
[11] = molecular target: each individual kinase of the panel (Homo sapiens, UniProt P00533); test: as above; settings: for % Activity: EGFR(h)
[12] = molecular target: each individual kinase of the panel (Homo sapiens, UniProt O75676); test: as above; settings: for % Activity: MSK2(h)
[13] = molecular target: each individual kinase of the panel (Homo sapiens, UniProt P08581); test: as above; settings: for % Activity: Met(h)
[14] = molecular target: each individual kinase of the panel (Homo sapiens, UniProt P53350); test: as above; settings: Plk1(h)
[15] = molecular target: each individual kinase of the panel (Homo sapiens, UniProt P54760); test: as above; settings: for % Activity: EphB4(h)
[16] = molecular target: each individual kinase of the panel (Homo sapiens, UniProt P80192); test: as above; settings: for % Activity: MLK1(h)
[17] = molecular target: each individual kinase of the panel (Homo sapiens, UniProt Q02750); test: as above; settings: for % Activity: MEK1(h)
[18] = molecular target: each individual kinase of the panel (Homo sapiens, UniProt O14965); test: as above; settings: for % Activity: Aurora-A(h)
[19] = molecular target: each individual kinase of the panel (Homo sapiens, UniProt P00533, L858R); test: as above; settings: for % Activity: EGFR(L858R)(h)
[20] = molecular target: each individual kinase of the panel (Homo sapiens, UniProt Q04912); test: as above; settings: for % Activity: Ron(h)
[21] = molecular target: each individual kinase of the panel (Homo sapiens, UniProt O60285); test: as above; settings: for % Activity: ARK5(h)
[22] = molecular target: each individual kinase of the panel (Homo sapiens, UniProt P51955); test: as above
[23] = molecular target: each individual kinase of the panel (Homo sapiens, UniProt Q9UM73); test: as above
[24] = molecular target: each individual kinase of the panel (Homo sapiens, UniProt Q16539, T106M); test: as above
[25] = molecular target: each individual kinase of the panel (Homo sapiens, UniProt P51813); test: as above
[26] = molecular target: each individual kinase of the panel (Homo sapiens, UniProt Q13882); test: as above
[27] = molecular target: each individual kinase of the panel (Mus musculus, UniProt P16277); test: as above
[28] = molecular target: each individual kinase of the panel (Homo sapiens, UniProt P22607); test: as above

Sequence of each individual kinase of the panel (Homo sapiens, UniProt Q13976) (Q13976 2-671 limits assumed): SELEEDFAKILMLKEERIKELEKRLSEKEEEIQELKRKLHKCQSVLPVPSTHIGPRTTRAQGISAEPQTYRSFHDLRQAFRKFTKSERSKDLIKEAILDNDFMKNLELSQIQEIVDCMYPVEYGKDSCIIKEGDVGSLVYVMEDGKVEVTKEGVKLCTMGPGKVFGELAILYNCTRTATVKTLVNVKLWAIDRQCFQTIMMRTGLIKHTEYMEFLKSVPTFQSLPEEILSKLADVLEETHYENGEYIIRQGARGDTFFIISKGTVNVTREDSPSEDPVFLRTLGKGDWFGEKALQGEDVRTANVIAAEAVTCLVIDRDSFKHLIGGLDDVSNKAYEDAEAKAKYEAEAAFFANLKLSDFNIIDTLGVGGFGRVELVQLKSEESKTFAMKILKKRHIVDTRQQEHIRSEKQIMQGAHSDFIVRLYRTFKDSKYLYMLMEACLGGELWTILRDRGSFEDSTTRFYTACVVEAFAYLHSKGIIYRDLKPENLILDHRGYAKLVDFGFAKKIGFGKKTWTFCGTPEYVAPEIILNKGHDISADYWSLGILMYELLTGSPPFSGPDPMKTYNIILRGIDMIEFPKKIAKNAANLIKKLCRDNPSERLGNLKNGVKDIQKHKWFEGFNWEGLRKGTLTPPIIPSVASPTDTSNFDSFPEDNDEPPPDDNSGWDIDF
Sequence of each individual kinase of the panel (Homo sapiens, UniProt Q04912) (Q04912 25-304 limits assumed): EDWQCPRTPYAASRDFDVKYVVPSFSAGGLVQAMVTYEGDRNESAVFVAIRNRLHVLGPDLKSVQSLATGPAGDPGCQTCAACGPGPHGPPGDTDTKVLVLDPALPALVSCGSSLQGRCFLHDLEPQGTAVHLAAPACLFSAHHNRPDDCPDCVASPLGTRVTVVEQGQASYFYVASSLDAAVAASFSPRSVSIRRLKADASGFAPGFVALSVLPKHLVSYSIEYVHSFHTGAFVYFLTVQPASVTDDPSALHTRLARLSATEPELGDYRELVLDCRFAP
Sequence of each individual kinase of the panel (Homo sapiens, UniProt Q04912) (Q04912 310-1400 limits assumed): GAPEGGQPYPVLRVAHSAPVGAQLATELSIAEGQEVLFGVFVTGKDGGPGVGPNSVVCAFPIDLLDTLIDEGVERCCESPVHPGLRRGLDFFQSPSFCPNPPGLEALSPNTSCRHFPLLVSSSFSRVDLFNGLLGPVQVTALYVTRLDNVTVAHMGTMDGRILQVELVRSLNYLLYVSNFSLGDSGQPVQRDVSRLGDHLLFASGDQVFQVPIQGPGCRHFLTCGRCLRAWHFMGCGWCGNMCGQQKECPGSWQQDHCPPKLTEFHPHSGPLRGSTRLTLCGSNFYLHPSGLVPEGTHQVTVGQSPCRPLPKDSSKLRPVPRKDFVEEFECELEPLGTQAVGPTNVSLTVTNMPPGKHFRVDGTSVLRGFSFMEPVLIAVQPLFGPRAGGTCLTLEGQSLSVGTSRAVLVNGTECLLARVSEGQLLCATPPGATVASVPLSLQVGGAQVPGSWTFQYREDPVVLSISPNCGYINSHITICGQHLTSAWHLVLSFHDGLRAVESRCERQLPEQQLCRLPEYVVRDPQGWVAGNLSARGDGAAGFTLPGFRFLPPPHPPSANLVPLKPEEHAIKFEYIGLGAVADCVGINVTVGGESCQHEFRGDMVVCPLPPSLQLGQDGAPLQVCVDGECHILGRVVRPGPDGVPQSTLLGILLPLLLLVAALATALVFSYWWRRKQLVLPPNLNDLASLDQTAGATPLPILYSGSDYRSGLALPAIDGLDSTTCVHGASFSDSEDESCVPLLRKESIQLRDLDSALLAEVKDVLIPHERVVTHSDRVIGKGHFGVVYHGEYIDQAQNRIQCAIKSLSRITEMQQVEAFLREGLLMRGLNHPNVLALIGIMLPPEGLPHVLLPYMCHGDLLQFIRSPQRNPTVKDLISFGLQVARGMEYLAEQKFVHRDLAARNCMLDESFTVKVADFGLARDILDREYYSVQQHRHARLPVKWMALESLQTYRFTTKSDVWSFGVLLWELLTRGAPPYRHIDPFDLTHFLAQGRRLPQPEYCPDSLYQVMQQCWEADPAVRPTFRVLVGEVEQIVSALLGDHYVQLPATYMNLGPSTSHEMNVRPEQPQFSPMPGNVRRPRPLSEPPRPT
Sequence of each individual kinase of the panel (Homo sapiens, UniProt Q9UM73) (Q9UM73 19-1620 limits assumed): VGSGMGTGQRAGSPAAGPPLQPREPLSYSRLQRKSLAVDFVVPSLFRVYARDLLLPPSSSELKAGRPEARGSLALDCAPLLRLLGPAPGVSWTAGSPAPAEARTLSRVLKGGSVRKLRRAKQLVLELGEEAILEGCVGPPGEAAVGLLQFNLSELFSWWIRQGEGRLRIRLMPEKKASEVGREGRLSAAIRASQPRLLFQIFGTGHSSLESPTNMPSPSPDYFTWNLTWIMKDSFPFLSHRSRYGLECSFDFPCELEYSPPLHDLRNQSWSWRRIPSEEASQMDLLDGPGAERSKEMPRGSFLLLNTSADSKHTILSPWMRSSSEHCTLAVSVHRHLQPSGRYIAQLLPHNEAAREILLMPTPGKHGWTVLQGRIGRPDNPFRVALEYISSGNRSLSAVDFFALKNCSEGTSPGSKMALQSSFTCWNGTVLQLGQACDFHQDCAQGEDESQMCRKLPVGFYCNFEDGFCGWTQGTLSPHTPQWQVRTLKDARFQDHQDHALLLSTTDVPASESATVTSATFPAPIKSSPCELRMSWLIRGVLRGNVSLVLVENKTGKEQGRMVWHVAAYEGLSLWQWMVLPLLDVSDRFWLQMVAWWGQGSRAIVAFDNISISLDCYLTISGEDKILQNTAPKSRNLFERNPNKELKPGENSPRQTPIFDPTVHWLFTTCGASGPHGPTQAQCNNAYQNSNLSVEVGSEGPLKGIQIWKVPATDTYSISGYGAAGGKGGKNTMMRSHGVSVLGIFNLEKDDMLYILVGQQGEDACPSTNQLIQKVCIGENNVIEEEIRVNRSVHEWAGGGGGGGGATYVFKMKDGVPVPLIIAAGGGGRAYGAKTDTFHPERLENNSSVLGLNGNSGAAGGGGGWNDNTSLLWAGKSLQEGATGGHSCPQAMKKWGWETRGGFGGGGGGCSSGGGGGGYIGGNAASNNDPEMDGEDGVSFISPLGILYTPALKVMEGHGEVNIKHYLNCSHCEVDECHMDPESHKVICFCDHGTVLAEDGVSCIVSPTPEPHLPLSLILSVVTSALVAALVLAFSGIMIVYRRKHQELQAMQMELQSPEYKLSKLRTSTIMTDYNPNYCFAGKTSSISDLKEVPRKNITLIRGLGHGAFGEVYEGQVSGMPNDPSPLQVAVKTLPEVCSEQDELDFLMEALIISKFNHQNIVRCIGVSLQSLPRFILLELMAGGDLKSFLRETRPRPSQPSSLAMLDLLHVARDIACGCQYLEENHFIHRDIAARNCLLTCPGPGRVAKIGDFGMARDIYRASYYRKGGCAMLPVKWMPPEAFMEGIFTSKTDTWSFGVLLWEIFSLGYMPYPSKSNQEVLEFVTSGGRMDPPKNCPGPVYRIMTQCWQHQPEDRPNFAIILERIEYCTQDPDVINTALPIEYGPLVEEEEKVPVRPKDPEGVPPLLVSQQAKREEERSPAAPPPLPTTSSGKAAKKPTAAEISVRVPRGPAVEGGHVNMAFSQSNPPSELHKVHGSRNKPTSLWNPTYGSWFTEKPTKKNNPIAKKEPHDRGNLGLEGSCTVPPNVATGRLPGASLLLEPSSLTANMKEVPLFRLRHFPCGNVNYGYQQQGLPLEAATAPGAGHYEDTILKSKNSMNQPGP
Sequence of each individual kinase of the panel (Homo sapiens, UniProt Q13177) (Q13177 2-524 limits assumed): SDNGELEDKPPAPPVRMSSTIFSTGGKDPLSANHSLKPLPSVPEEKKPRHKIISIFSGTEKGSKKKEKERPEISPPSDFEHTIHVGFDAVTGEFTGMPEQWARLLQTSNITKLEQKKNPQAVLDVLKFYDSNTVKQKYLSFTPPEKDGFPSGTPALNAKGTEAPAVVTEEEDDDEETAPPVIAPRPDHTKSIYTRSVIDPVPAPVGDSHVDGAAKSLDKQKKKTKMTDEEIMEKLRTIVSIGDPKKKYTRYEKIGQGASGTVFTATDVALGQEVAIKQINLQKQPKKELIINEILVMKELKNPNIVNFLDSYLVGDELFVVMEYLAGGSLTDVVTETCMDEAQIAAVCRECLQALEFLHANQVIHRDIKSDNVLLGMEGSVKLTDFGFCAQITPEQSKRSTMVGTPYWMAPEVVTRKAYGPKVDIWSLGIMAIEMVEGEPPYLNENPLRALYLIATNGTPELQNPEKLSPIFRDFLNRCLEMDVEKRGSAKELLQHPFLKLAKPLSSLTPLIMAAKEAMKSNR
Sequence of each individual kinase of the panel (Homo sapiens, UniProt P53350) (P53350 2-603 limits assumed): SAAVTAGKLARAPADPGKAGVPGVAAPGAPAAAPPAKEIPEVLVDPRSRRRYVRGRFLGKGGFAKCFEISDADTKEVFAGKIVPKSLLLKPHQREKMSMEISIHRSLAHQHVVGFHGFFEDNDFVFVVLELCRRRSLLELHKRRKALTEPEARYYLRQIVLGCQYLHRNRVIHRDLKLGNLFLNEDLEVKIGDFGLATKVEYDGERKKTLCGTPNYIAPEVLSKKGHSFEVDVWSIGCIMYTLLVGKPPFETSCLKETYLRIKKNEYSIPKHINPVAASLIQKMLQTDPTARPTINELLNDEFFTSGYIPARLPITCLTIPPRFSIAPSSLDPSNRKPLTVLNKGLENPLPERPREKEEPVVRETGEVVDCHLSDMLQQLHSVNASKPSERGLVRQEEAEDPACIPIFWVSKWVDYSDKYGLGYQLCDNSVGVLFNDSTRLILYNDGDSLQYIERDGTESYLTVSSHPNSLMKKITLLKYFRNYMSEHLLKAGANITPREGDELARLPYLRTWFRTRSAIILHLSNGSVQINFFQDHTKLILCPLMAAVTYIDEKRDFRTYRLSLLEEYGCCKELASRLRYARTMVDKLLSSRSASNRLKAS

SMILES: Clc1ccccc1Nc1nc2c(-c3nnc[nH]3)cccc2c2cnccc12 [A]
IC50 ([1]; Flt3(h)): 104 nM
IC50 ([1]; Pim-1(h)): 1 nM
IC50 ([1]; Pim-2(h)): 6 nM
IC50 ([1]; Pim-3(h)): 86 nM
IC50 ([1]; Rsk1(h)): 41 nM
IC50 ([1]; Rsk2(h)): 72 nM
IC50 ([1]; Rsk3(h)): 73 nM
IC50 ([1]; Rsk4(h)): 37 nM
% Activity [2]: 66%
% Activity [3]: 79%
% Activity [4]: 38%
% Activity [5]: 106%
% Activity [6]: 40%
% Activity [7]: 37%
% Activity [8]: 97%
% Activity [9]: 13%
% Activity [10]: 12%
% Activity [11]: 111%
% Activity [12]: 51%
% Activity [13]: 22%
% Activity [14]: 96%
% Activity [15]: 87%
% Activity [16]: 24%
% Activity [17]: 72%
% Activity [18]: 43%
% Activity [19]: 56%
% Activity [20]: 99%
% Activity [21]: 39%

SMILES: NC(=O)c1cccc2c1nc(Nc1cccc(Cl)c1)c1ccncc12 [B]
% Activity [2]: 69%
% Activity [3]: 82%
% Activity [4]: 33%
% Activity [5]: 108%
% Activity [6]: 34%
% Activity [7]: 18%
% Activity ([22]; NEK2(h)): 95%
% Activity [8]: 84%
% Activity [9]: 14%
% Activity [10]: 65%
% Activity [11]: 101%
% Activity ([23]; ALK(h)): 100%
% Activity [12]: 65%
% Activity [13]: 96%
% Activity [14]: 76%
% Activity [15]: 105%
% Activity [16]: 77%
% Activity [17]: 88%
% Activity [18]: 77%
% Activity [19]: 56%
% Activity [20]: 95%
% Activity [21]: 98%

SMILES: NC(=O)c1ccc2c(c1)nc(Nc1cccc(Cl)c1)c1ccncc12 [drawing 1138]
RAF1 percentage of activity [2]: 62%
PLK2 percentage of activity [3]: 9%
cKit(V560G) percentage of activity [4]: 75%
PAK2 percentage of activity [5]: 4%
PRKG1 percentage of activity [6]: 4%
CDK9/cyclin T1 percentage of activity [7]: 45%
NEK2 percentage of activity [22]: 13%
MAPKAPK5 percentage of activity [8]: 22%
MELK percentage of activity [9]: 73%
EGFR percentage of activity [11]: 15%
ALK percentage of activity [23]: −2%
MSK2 percentage of activity [12]: 9%
MET percentage of activity [13]: −6%
EPHB4 percentage of activity [15]: −16%
MLK1 percentage of activity [16]: 49%
MEK1 percentage of activity [17]: 8%
AURKA percentage of activity [18]: 11%
EGFR(L858R) percentage of activity [19]: 63%
RON percentage of activity [20]: −3%
ARK5 percentage of activity [21]: 5%

Other lines, results leading:

RAF1 percentage of activity [2]: 31%
p38-alpha (T106M) percentage of activity [24]: −8%
PLK2 percentage of activity [3]: −17%
cKit(V560G) percentage of activity [4]: −11%
PAK2 percentage of activity [5]: −12%
PRKG1 percentage of activity [6]: −5%
CDK9/cyclin T1 percentage of activity [7]: 0%
NEK2 percentage of activity [22]: 23%
MAPKAPK5 percentage of activity [8]: 7%
BMX percentage of activity [25]: −18%
MELK percentage of activity [9]: 51%
PIM3 percentage of activity [10]: 13%
BRK percentage of activity [26]: −10%
EGFR percentage of activity [11]: −23%
ALK percentage of activity [23]: −12%
MSK2 percentage of activity [12]: 44%
MET percentage of activity [13]: −22%
EPHB4 percentage of activity [15]: −44%
MLK1 percentage of activity [16]: 20%
MEK1 percentage of activity [17]: −36%
Blk(m) percentage of activity [27]: 0%
AURKA percentage of activity [18]: 6%
FGFR3 percentage of activity [28]: −2%
RON percentage of activity [20]: −6%
ARK5 percentage of activity [21]: −8%
SMILES: C#Cc1cccc(Nc2nc3cc(C(=O)O)ccc3c3cncnc23)c1 [drawing 1135]

RAF1 percentage of activity [2]: 62%
PLK2 percentage of activity [3]: 30%
cKit(V560G) percentage of activity [4]: 69%
PAK2 percentage of activity [5]: 1%
PRKG1 percentage of activity [6]: −4%
CDK9/cyclin T1 percentage of activity [7]: 27%
NEK2 percentage of activity [22]: 73%
MAPKAPK5 percentage of activity [8]: 22%
BMX percentage of activity [25]: 8%
MELK percentage of activity [9]: 77%
PIM3 percentage of activity [10]: −2%
BRK percentage of activity [26]: 18%
EGFR percentage of activity [11]: 24%
ALK percentage of activity [23]: −20%
MSK2 percentage of activity [12]: 41%
MET percentage of activity [13]: −16%
EPHB4 percentage of activity [15]: −8%
MLK1 percentage of activity [16]: 21%
MEK1 percentage of activity [17]: 4%
Blk(m) percentage of activity [27]: 33%
AURKA percentage of activity [18]: 3%
EGFR(L858R) percentage of activity [19]: 24%
RON percentage of activity [20]: 9%
ARK5 percentage of activity [21]: 14%
SMILES: C#Cc1cccc(Nc2nc3cc(C(=O)O)ccc3c3cnccc23)c1 [drawing 1137]
